In patent US9763918B2, “Compositions and methods for treating chronic urticaria” (Knopp Biosciences LLC, priority 2013, dated 2017):

Experiments:
[1] = test system: eosinophils; format: in vivo; conditions: minipigs, 7.5, 25, 75/50 mg/kg daily oral gavage, 39 weeks
Experimental: In a 39-week repeat-dose toxicology study, minipigs were dosed at 0, 7.5, 25, and 75 mg/kg dexpramipexole by daily oral gavage through Study Day 45 and at 0, 7.5, 25, and 50 mg/kg dexpramipexole from Study Day 46 to study completion.

[2] = test system: myeloid and lymphoid cell types, red blood cells, platelets; conditions: Phase 3, 300 mg daily, month 6
Experimental: Hematological parameters were measured in a Phase 3 study of dexpramipexole in ALS. Because of the high rate of mortality among ALS patients, including subjects in the Phase 3 trial, hematology parameters obtained at the month 6 visit were chosen for analysis to remove the effect of study dropouts in later months.

[3] = test system: eosinophils
Experimental: (§1) In FIG. 2A the time period marked “W” represents the end of the 4-week washout following the month 3 time point.
The phase 3 clinical trial was a double-blind study of dexpramipexole in ALS patients randomized 1:1 to placebo or dexpramipexole 300 mg daily treatment. Hematology parameters were collected as part of routine safety monitoring. Eosinophil and basophil counts were retrospectively analyzed by visit.
Eosinophil levels were summarized over available time points and analyzed by ANOVA testing the effect of treatment vs. placebo on mean changes in serum eosinophil counts from baseline. Subjects with baseline eosinophils from 0 to 0.02×10^9/L (constituting less than 2% of all subjects analyzed) were censored from the primary analysis because of the inherent limitation to observe a decline from baseline.
Statistical analysis of the change from baseline was performed at month 6 to remove the effect of study dropouts in later months.

[4] = test system: eosinophils; remark: listed apart in the source
Experimental: as §1
The Phase 2 trial was a two-part, double-blind study that evaluated the safety, tolerability, and clinical effects of dexpramipexole in ALS patients.
In Part 1, subjects were randomized to placebo (n=27), 50 mg/day (n=23), 150 mg/day (n=26), or 300 mg/day dexpramipexole (n=26) for 12 weeks.

[5] = test system: Sca1+ c-Kit+ lineage negative cells (multipotent hematopoietic stem cells); conditions: mice, 30 mg/kg or 100 mg/kg daily gavage, 70 days, either dose
Experimental: (§2) The study consisted of 3 groups of BALB/cByJ mice (10 mice per group). Mice received daily gavage treatments of either 30 mg/kg, 100 mg/kg of dexpramipexole or vehicle control for 70 days. Bone marrow was processed into single cell suspensions and cells were stained with fluorescent conjugate antibodies to analyze the developmental stages of cells by flow cytometry. […] The columns depict the mean for each group and the error bar indicates the standard error of the mean. The asterisks denote statistical significance between treatment groups and the vehicle control group by one-way ANOVA (* p≦0.05, ** p≦0.01).

[6] = test system: Siglec-F lo IL5Rα hi positive cells (developing B cells, basophils and other cell populations); conditions: mice, 30 mg/kg or 100 mg/kg daily gavage, 70 days, either dose
Experimental: as §2

## CCCN[C@@H]1CCc2nc(N)sc2C1 [dexpramipexole, (6R)-2-amino-4,5,6,7-tetrahydro-6-(propylamino) benzothiazole]
[1]
  effect on eosinophils: dose- and time-dependent reduction in eosinophils
[2]
  change of all myeloid and lymphoid cell types measured: statistically significant mean reductions from baseline
[3]; Phase 3, after 8-12 weeks of treatment, persisted for the duration of the trial
  peripheral blood eosinophil count: profound decrease
[3]; Phase 3 subject with highest baseline eosinophil count, through month 12
  eosinophil counts in subject with elevated eosinophil counts at baseline: decrease in eosinophil counts
[4]; Phase 2 trial in ALS subjects
  effect on eosinophil counts: dose- and time-dependent decrease in eosinophil counts
[4]; one Phase 2 subject, Part 2 baseline, through month 12
  eosinophil counts in subject with hypereosinophilia at baseline: decrease in eosinophil counts
[5]
  number of Sca1+ c-Kit+ lineage negative cells in bone marrow vs vehicle control: lowered
[6]
  Siglec-F lo IL5Rα hi positive cells in bone marrow vs vehicle control: lowered
